According to patent US11547681B2, “N-acylethanolamide derivatives and uses thereof” (ELIEM THERAPEUTICS, INC., priority 2016, dated 2023):
Where two headings read alike, the source gives them in different places.

Columns and labels:
[1] = Simulated intestinal fluid (SIF) stability in the presence of various enzymes; assay type: in vitro ADME; settings: 1 μM
Description: (§1) Studies were carried out in simulated intestinal fluid in the presence of various enzymes. Simulated intestinal fluid was prepared by dissolving 6.8 g of monobasic potassium phosphate in 1.0 L of water. Aliquots of this solution were taken and the pH was adjusted to 6.8. Individual enzymes were then spiked into aliquots for each experiment. A DMSO stock was first prepared for the test article. Aliquots of the DMSO solution were dosed into 700 μL of matrix, which had been pre-warmed to 37° C., at a final test article concentration of 1 μM. […] Samples were stored at 4° C. until the end of the experiment. After the final time point was sampled, the plate was mixed and then centrifuged at 3,000 rpm for 10 minutes. Calibration standards were prepared in matched matrix. […] Analytical conditions are outlined in Appendix 8-1.
as §1, with “10-1.” for “8-1.”
Studies were carried out in simulated intestinal fluid in the presence of various enzymes. Simulated intestinal fluid was prepared by dissolving 6.8 g of monobasic potassium phosphate in 1.0 L of water. Aliquots of this solution were taken and the pH was adjusted to 6.8. Individual enzymes were then spiked into aliquots for each experiment. A DMSO stock was first prepared for test article. Aliquots of the DMSO solution were dosed into 700 μL of matrix, which had been pre-warmed to 37° C., at a final test article concentration of 1 μM. […] Samples were stored at 4° C. until the end of experiment. After final time point was sampled, the plate was mixed and then centrifuged at 3,000 rpm for 10 minutes. Calibration standards were prepared in matched matrix. […] Analytical conditions are outlined in Appendix 13-1.
as §1, with “17-1.” for “8-1.”

[2] = male, Sprague-Dawley, rat, in vivo
[3] = SIF + Carboxypeptidase A, 0 min
[4] = SIF + Carboxypeptidase A, 15 min
[5] = SIF + Carboxypeptidase A, 30 min
[6] = SIF + Carboxypeptidase A, 60 min
[7] = SIF + Carboxypeptidase A, 120 min
[8] = SIF + Carboxypeptidase B, 0 min
[9] = SIF + Carboxypeptidase B, 15 min
[10] = SIF + Carboxypeptidase B, 30 min
[11] = SIF + Carboxypeptidase B, 60 min
[12] = SIF + Carboxypeptidase B, 120 min
[13] = simulated intestinal fluid with carboxypeptidase A, pH 6.8, SIF + Carboxypeptidase A, read-out: Half-life
[14] = simulated intestinal fluid with carboxypeptidase B, pH 6.8, SIF + Carboxypeptidase B, read-out: Half-life
[15] = simulated intestinal fluid with chymotrypsin, pH 6.8, SIF + Chymotrypsin, read-out: Half-life
[16] = simulated intestinal fluid with elastase, pH 6.8, SIF + Elastase, read-out: Half-life
[17] = simulated intestinal fluid with pancreatin, pH 6.8, SIF + Pancreatin, read-out: Half-life
[18] = simulated intestinal fluid with trypsin, pH 6.8, SIF + Trypsin, read-out: Half-life

## CC/C=C\C/C=C\C/C=C\C/C=C\C/C=C\CCCC(=O)OCCNC(=O)CCCCCCCCCCCCCCC [Compound I-5]
[1]; [3]
  % Remaining of Initial (n = 1): 100%
[1]; [4]
  % Remaining of Initial (n = 1): 84%
[1]; [5]
  % Remaining of Initial (n = 1): 63%
[1]; [6]
  % Remaining of Initial (n = 1): 39%
[1]; [7]
  % Remaining of Initial (n = 1): 15%
[1]; [8]
  % Remaining of Initial (n = 1): 100%
[1]; [9]
  % Remaining of Initial (n = 1): 94%
[1]; [10]
  % Remaining of Initial (n = 1): 62%
[1]; [11]
  % Remaining of Initial (n = 1): 43%
[1]; [12]
  % Remaining of Initial (n = 1): 14%
[1]; SIF + Chymotrypsin, 0 min
  % Remaining of Initial (n = 1): 100%
[1]; SIF + Chymotrypsin, 15 min
  % Remaining of Initial (n = 1): 75%
[1]; SIF + Chymotrypsin, 30 min
  % Remaining of Initial (n = 1): 59%
[1]; SIF + Chymotrypsin, 60 min
  % Remaining of Initial (n = 1): 37%
[1]; SIF + Chymotrypsin, 120 min
  % Remaining of Initial (n = 1): 23%
[1]; SIF + Elastase, 0 min
  % Remaining of Initial (n = 1): 100%
[1]; SIF + Elastase, 15 min
  % Remaining of Initial (n = 1): 103%
[1]; SIF + Elastase, 30 min
  % Remaining of Initial (n = 1): 70%
[1]; SIF + Elastase, 60 min
  % Remaining of Initial (n = 1): 48%
[1]; SIF + Elastase, 120 min
  % Remaining of Initial (n = 1): 35%
[1]; SIF + Pancreatin, 0 min
  % Remaining of Initial (n = 1): 100%
[1]; SIF + Pancreatin, 15 min
  % Remaining of Initial (n = 1): 13%
[1]; SIF + Pancreatin, 30 min
  % Remaining of Initial (n = 1): <1.0%
[1]; SIF + Pancreatin, 60 min
  % Remaining of Initial (n = 1): <1.0%
[1]; SIF + Pancreatin, 120 min
  % Remaining of Initial (n = 1): <1.0%
[1]; SIF + Trypsin, 0 min
  % Remaining of Initial (n = 1): 100%
[1]; SIF + Trypsin, 15 min
  % Remaining of Initial (n = 1): 81%
[1]; SIF + Trypsin, 30 min
  % Remaining of Initial (n = 1): 67%
[1]; SIF + Trypsin, 60 min
  % Remaining of Initial (n = 1): 44%
[1]; SIF + Trypsin, 120 min
  % Remaining of Initial (n = 1): 26%
[1]; [13]
  half-life at 1 μM: 44 min
[1]; [14]
  half-life at 1 μM: 45 min
[1]; [15]
  half-life at 1 μM: 47 min
[1]; [16]
  half-life at 1 μM: 65 min
[1]; [17]
  half-life at 1 μM: 5.1 min
[1]; [18]
  half-life at 1 μM: 56 min
[2]
  PEA plasma concentration, 0 (pre-dose): 3.66 ng/mL

## CCCCCCCCCCCCCCCC(=O)NCCOC(=O)CCC(=O)OCC(COC(=O)CCCCCCC)OC(=O)CCCCCCC (centres unmarked) [Compound I-3, PEA-Succinate-Glycerol-Di-Caprylic]
[1]; [3]
  % Remaining of Initial (n = 1): 100%
[1]; [4]
  % Remaining of Initial (n = 1): 76%
[1]; [5]
  % Remaining of Initial (n = 1): 66%
[1]; [6]
  % Remaining of Initial (n = 1): 36%
[1]; [7]
  % Remaining of Initial (n = 1): 20%
[1]; [8]
  % Remaining of Initial (n = 1): 100%
[1]; [9]
  % Remaining of Initial (n = 1): 86%
[1]; [10]
  % Remaining of Initial (n = 1): 77%
[1]; [11]
  % Remaining of Initial (n = 1): 41%
[1]; [12]
  % Remaining of Initial (n = 1): 15%
[1]; SIF + Chymotrypsin, 0 min
  % Remaining of Initial (n = 1): 100%
[1]; SIF + Chymotrypsin, 15 min
  % Remaining of Initial (n = 1): 102%
[1]; SIF + Chymotrypsin, 30 min
  % Remaining of Initial (n = 1): 84%
[1]; SIF + Chymotrypsin, 60 min
  % Remaining of Initial (n = 1): 61%
[1]; SIF + Chymotrypsin, 120 min
  % Remaining of Initial (n = 1): 53%
[1]; SIF + Elastase, 0 min
  % Remaining of Initial (n = 1): 100%
[1]; SIF + Elastase, 15 min
  % Remaining of Initial (n = 1): 94%
[1]; SIF + Elastase, 30 min
  % Remaining of Initial (n = 1): 61%
[1]; SIF + Elastase, 60 min
  % Remaining of Initial (n = 1): 44%
[1]; SIF + Elastase, 120 min
  % Remaining of Initial (n = 1): 29%
[1]; SIF + Pancreatin, 0 min
  % Remaining of Initial (n = 1): 100%
[1]; SIF + Pancreatin, 15 min
  % Remaining of Initial (n = 1): <1.0%
[1]; SIF + Pancreatin, 30 min
  % Remaining of Initial (n = 1): <1.0%
[1]; SIF + Pancreatin, 60 min
  % Remaining of Initial (n = 1): <1.0%
[1]; SIF + Pancreatin, 120 min
  % Remaining of Initial (n = 1): <1.0%
[1]; SIF + Trypsin, 0 min
  % Remaining of Initial (n = 1): 100%
[1]; SIF + Trypsin, 15 min
  % Remaining of Initial (n = 1): 67%
[1]; SIF + Trypsin, 30 min
  % Remaining of Initial (n = 1): 60%
[1]; SIF + Trypsin, 60 min
  % Remaining of Initial (n = 1): 55%
[1]; SIF + Trypsin, 120 min
  % Remaining of Initial (n = 1): 43%
[1]; [13]
  half-life at 1 μM: 46 min
[1]; [14]
  half-life at 1 μM: 49 min
[1]; [15]
  half-life at 1 μM: 107 min
[1]; [16]
  half-life at 1 μM: 55 min
[1]; [17]
  half-life at 1 μM: < 1 min
[1]; [18]
  half-life at 1 μM: 93 min

## CCCCC/C=C\C/C=C\CCCCCCCC(=O)OCC(COC(=O)CCC(=O)OCCNC(=O)CCCCCCCCCCCCCCC)OC(=O)CCCCCCC/C=C\C/C=C\CCCCC (centres unmarked) [Compound I-13]
[1]; [3]
  % Remaining of Initial (n = 1): 100%
[1]; [4]
  % Remaining of Initial (n = 1): 77%
[1]; [5]
  % Remaining of Initial (n = 1): 53%
[1]; [6]
  % Remaining of Initial (n = 1): 27%
[1]; [7]
  % Remaining of Initial (n = 1): 37%
[1]; [8]
  % Remaining of Initial (n = 1): 100%
[1]; [9]
  % Remaining of Initial (n = 1): 65%
[1]; [10]
  % Remaining of Initial (n = 1): 31%
[1]; [11]
  % Remaining of Initial (n = 1): 14%
[1]; [12]
  % Remaining of Initial (n = 1): 8.7%
[1]; SIF + Chymotrypsin, 0 min
  % Remaining of Initial (n = 1): 100%
[1]; SIF + Chymotrypsin, 15 min
  % Remaining of Initial (n = 1): 82%
[1]; SIF + Chymotrypsin, 30 min
  % Remaining of Initial (n = 1): 67%
[1]; SIF + Chymotrypsin, 60 min
  % Remaining of Initial (n = 1): 45%
[1]; SIF + Chymotrypsin, 120 min
  % Remaining of Initial (n = 1): 15%
[1]; SIF + Elastase, 0 min
  % Remaining of Initial (n = 1): 100%
[1]; SIF + Elastase, 15 min
  % Remaining of Initial (n = 1): 41%
[1]; SIF + Elastase, 30 min
  % Remaining of Initial (n = 1): 16%
[1]; SIF + Elastase, 60 min
  % Remaining of Initial (n = 1): 5.6%
[1]; SIF + Elastase, 120 min
  % Remaining of Initial (n = 1): 5.0%
[1]; SIF + Pancreatin, 0 min
  % Remaining of Initial (n = 1): 100%
[1]; SIF + Pancreatin, 15 min
  % Remaining of Initial (n = 1): 1.3%
[1]; SIF + Pancreatin, 30 min
  % Remaining of Initial (n = 1): 3.7%
[1]; SIF + Pancreatin, 60 min
  % Remaining of Initial (n = 1): 3.4%
[1]; SIF + Pancreatin, 120 min
  % Remaining of Initial (n = 1): <1.0%
[1]; SIF + Trypsin, 0 min
  % Remaining of Initial (n = 1): 100%
[1]; SIF + Trypsin, 15 min
  % Remaining of Initial (n = 1): 78%
[1]; SIF + Trypsin, 30 min
  % Remaining of Initial (n = 1): 70%
[1]; SIF + Trypsin, 60 min
  % Remaining of Initial (n = 1): 55%
[1]; SIF + Trypsin, 120 min
  % Remaining of Initial (n = 1): <1.0%
[1]; [13]
  half-life at 1 μM: 47 min
[1]; [14]
  half-life at 1 μM: 20 min
[1]; [15]
  half-life at 1 μM: 49 min
[1]; [16]
  half-life at 1 μM: 12 min
[1]; simulated intestinal fluid with pancreatin, pH 6.8, SIF + Pancreatin, outside the sampled time range, read-out: Half-life, calculated (in parentheses)
  half-life at 1 μM: 2.5 min
[1]; [17]
  half-life at 1 μM: < 15 min
[1]; [18]
  half-life at 1 μM: 47 min
